Assay results from ChEMBL document CHEMBL1155187, “Amplification of the inhibitory activity of miglitol by monofluorination” (Bioorg Med Chem Lett, 2009).

Target: Oligo-1,6-glucosidase IMA1 (Saccharomyces cerevisiae S288c, UniProt P53051)
Assay: Inhibition of baker's yeast alpha-glucosidase by 4-nitrophenolate-based assay

Sequence of Oligo-1,6-glucosidase IMA1 (P53051 whole entry): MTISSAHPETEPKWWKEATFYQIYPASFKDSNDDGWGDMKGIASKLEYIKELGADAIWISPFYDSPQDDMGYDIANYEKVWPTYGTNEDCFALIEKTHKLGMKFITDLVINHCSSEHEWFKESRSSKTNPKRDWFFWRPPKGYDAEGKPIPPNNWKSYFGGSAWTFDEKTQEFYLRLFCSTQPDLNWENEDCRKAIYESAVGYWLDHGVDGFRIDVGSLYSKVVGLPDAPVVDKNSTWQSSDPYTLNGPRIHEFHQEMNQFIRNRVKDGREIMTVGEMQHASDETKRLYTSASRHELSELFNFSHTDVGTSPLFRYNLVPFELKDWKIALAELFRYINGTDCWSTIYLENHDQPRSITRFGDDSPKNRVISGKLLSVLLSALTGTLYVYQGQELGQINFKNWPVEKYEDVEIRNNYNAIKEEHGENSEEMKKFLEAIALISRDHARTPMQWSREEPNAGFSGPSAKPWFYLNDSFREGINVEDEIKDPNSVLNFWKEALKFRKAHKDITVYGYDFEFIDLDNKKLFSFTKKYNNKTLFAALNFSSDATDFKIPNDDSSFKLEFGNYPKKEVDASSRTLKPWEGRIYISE

| SMILES | IC50 |
| --- | --- |
| OCCN1C[C@@H](F)[C@@H](O)[C@H](O)[C@H]1CO | 2.1 mM |
| OCCN1C[C@H](O)[C@@H](O)[C@H](O)[C@H]1CO [MIGLITOL] | 9.9 mM |
